Experimental findings from US9562031B1, “Phenethyldihydrobenzodioxolones and methods of use” (Sequoia Sciences, Inc., priority 2015, dated 2017) are described below.

Where two headings read alike, the source gives them in different places.

The subject of assay [1] is M14 (amelanotic melanoma) cells. Kind of assay: antiproliferation assay (72 h, CELLTITER 96), M14. The assay is classed as cell-based, human. As for the experimental part: (§1) All of the compounds shown in Table 3-Table 8 below were prepared synthetically as described in EXAMPLE I. The compounds were tested for their ability to inhibit the proliferation of human cancer cells in vitro as described in the following paragraph. Table 3-Table 8 list the IC50 values in the M14 and NCI-H460 human cancer cell lines. IC50 is defined as the concentration of compound necessary to achieve 50% of the maximum growth inhibition.
(§2) For the antiproliferation assay, NCI-H460 (large cell lung carcinoma) or M14 (amelanotic melanoma) cells were grown in RPMI-1640 with 10% FBS supplemented with L-glutamine and HEPES. Cells were seeded into 96-well plates at 5×10^2 to 5×10^4 cells/well and allowed to adhere overnight; the medium was then removed. A stock solution of test compound in DMSO was diluted in medium to generate a series of working solutions. Aliquots (100 μl) of the working solutions were then added to the appropriate test wells to expose cells to the final concentrations of compound in a total volume of 100 μl. Seven different concentrations were tested, with 2-5 wells per concentration. Camptothecin was used as a positive control; wells containing vehicle without compound were used as negative controls. Plates were kept for 72 h in a 37° C., 5% CO2 incubator. After incubation, viable cells were detected with the CELLTITER 96 AQueous Non-Radioactive Cell Proliferation Assay (Promega), and IC50 values were determined using GraphPad Prism 5 software.

For assay [2], the system named is NCI-H460 (large cell lung carcinoma) cells. Briefly: antiproliferation assay (72 h, CELLTITER 96), NCI-H460. The assay is classed as cell-based, human. The following applies: read-out: NCI-H460 IC50. As for the experimental part: as §1, §2
[3] abbreviates: Homo sapiens, NCI-H460, Table 8.
Setting [4] is: Homo sapiens, NCI-H460, Table 6.
Where [5] appears, read: Homo sapiens, NCI-H460, Table 7.
The mark [6] stands for this setting: Homo sapiens, NCI-H460, Table 3.
The mark [7] stands for this setting: Homo sapiens, NCI-H460, Table 4.
[8] abbreviates: Homo sapiens, NCI-H460, Table 5.

In general, IC50 refers to the concentration at which inhibition is half-maximal. `C=CC[C@H]1C[C@]2(CCc3ccc(OC)c(OC)c3)OCOC2=CC1=O` [Compound 72, (6S,7aS)-6-allyl-7a-(3,4-dimethoxyphenethyl)-7,7a-dihydrobenzo[d][1,3]dioxol-5(6H)-one]: the IC50 turned out to be 2 µM in assay [1] (Homo sapiens, Table 8) and 3.2 µM in assay [2] (setting [3]).
With `C=CC[C@H]1C[C@]2([C@@H](C)Cc3ccccc3)OCOC2=CC1=O` [Compound 49], the IC50 came to 5.1 µM in assay [1] (Homo sapiens, Table 6) and 9.7 µM in assay [2] (setting [4]).
Regarding `C=C[C@H](C)[C@H]1C[C@]2([C@@H](C)Cc3ccc(OC)cc3F)OCOC2=CC1=O` [Compound 110, (6R,7aR)-6-((S)-but-3-en-2-yl)-7a-((S)-1-(2-fluoro-4-methoxyphenyl)propan-2-yl)-7,7a-dihydrobenzo[d][1,3]dioxol-5(6H)-one], the half-inhibitory concentration (IC50) in assay [1] (Homo sapiens, Table 7) came to 0.29 µM; in assay [2] (setting [5]), 0.13 µM.
With `C=CCOc1cc(C[C@@H](C)[C@]23C[C@H](CC=C)C(=O)C=C2OCO3)c(F)cc1OC` [Compound 16, (6S,7aR)-6-allyl-7a-((R)-1-(5-(allyloxy)-2-fluoro-4-methoxyphenyl)propan-2-yl)-7,7a-dihydrobenzo[d][1,3]dioxol-5(6H)-one], the IC50 was 0.52 µM in assay [1] (Homo sapiens, Table 3) and 0.62 µM in assay [2] (setting [6]).
`C=CC[C@H]1C[C@]2([C@H](C)Cc3ccc(OC)c(OC)c3)OCOC2=CC1=O` [Compound 24, (6S,7aR)-6-allyl-7a-((R)-1-(3,4-dimethoxyphenyl)propan-2-yl)-7,7a-dihydrobenzo[d][1,3]dioxol-5(6H)-one]: the IC50 in assay [1] (Homo sapiens, Table 4) was found to be 0.11 µM; in assay [2] (setting [7]), 0.32 µM.
`C=CC[C@H]1C[C@]2([C@H](C)Cc3ccc(OC)cc3F)OCOC2=CC1=O` (relative stereo) [Compound 3, 6-allyl-7a-(1-(2-fluoro-4-methoxyphenyl)propan-2-yl)-7,7a-dihydrobenzo[d][1,3]dioxol-5(6H)-one]: the half-maximal inhibitory concentration (IC50) in assay [1] (Homo sapiens, Table 3) was 0.013 µM; in assay [2] (setting [6]), 0.077 µM.
With `C=CC[C@H]1C[C@]2(C(C)Cc3ccc(OC)c(OC(C)=O)c3)OCOC2=CC1=O` (stereo partly drawn) [Compound 33, 5-(2-((3aR,5S)-5-allyl-6-oxo-3a,4,5,6-tetrahydrobenzo[d][1,3]dioxol-3a-yl)propyl)-2-methoxyphenyl acetate], the IC50 in assay [1] (Homo sapiens, Table 4) came to 0.016 µM; in assay [2] (setting [7]), 0.11 µM.
Consider `COc1cc(F)c(C[C@H](C)[C@]23C[C@H](CCCF)C(=O)C=C2OCO3)cc1O` [Compound 69, (6S,7aR)-7a-((S)-1-(2-fluoro-5-hydroxy-4-methoxyphenyl)propan-2-yl)-6-(3-fluoropropyl)-7,7a-dihydrobenzo[d][1,3]dioxol-5(6H)-one], for which the half-maximal inhibitory concentration (IC50) in assay [1] (Homo sapiens, Table 7) turned out to be 0.57 µM; in assay [2] (setting [5]) it was 0.51 µM.
Consider `C=CC[C@H]1C[C@]2([C@H](C)Cc3ccc(OC)c4occc34)OCOC2=CC1=O` [Compound 84, (6S,7aR)-6-allyl-7a-((R)-1-(7-methoxybenzofuran-4-yl)propan-2-yl)-7,7a-dihydrobenzo[d][1,3]dioxol-5(6H)-one], for which the 50% inhibitory concentration (IC50) in assay [1] (Homo sapiens, Table 8) is over 20 µM; in assay [2] (setting [3]), 2.6 µM.
Turning to `C=CC[C@H]1C[C@]2([C@@H](C)Cc3cc(O)c(OC)cc3F)OCOC2=CC1=O` [Compound 5, (6S,7aR)-6-allyl-7a-((S)-1-(2-fluoro-5-hydroxy-4-methoxyphenyl)propan-2-yl)-7,7a-dihydrobenzo[d][1,3]dioxol-5(6H)-one], the half-inhibitory concentration (IC50) in assay [1] (Homo sapiens, Table 3) was determined as 0.009 µM; in assay [2] (setting [6]), 0.033 µM.
On the same counts, the results for `C=CC[C@H]1C[C@]2([C@@H](C)Cc3cc(C(=O)NC)c(OC)cc3F)OCOC2=CC1=O` [Compound 12, 5-((S)-2-((3aR,5S)-5-allyl-6-oxo-3a,4,5,6-tetrahydrobenzo[d][1,3]dioxol-3a-yl)propyl)-4-fluoro-2-methoxy-N-methylbenzamide] are 0.24 µM and 0.52 µM.
Turning to `C=CC[C@H]1C[C@]2([C@@H](C)Cc3ccc(OC)cc3OC(C)=O)OCOC2=CC1=O` [Compound 53, 2-((S)-2-((3aR,5S)-5-allyl-6-oxo-3a,4,5,6-tetrahydrobenzo[d][1,3]dioxol-3a-yl)propyl)-5-methoxyphenyl acetate], the IC50 in assay [1] (Homo sapiens, Table 6) came out at 0.27 µM; in assay [2] (setting [4]) it was 2.3 µM.
With “(6S,7aR)-6-allyl-7a-((S)-1-(2-fluoro-4-methoxy-5-morpholinophenyl)propan-2-yl)-7,7a-dihydrobenzo[d][1,3]dioxol-5(6H)-one [Compound 98]”, the half-maximal inhibitory concentration (IC50) in assay [1] (Table 4) and in assay [2] (Table 4) was over 20 µM each time.
Consider `CCC[C@H]1C[C@]2([C@H](C)Cc3cc(O)c(OC)cc3F)OCOC2=CC1=O` [Compound 60], for which the half-maximal inhibitory concentration (IC50) in assay [1] (Homo sapiens, Table 7) amounted to 0.0059 µM; in assay [2] (setting [5]) it was 0.067 µM.
As to `C=CC[C@H]1C[C@]2([C@@H](C)Cc3ccc(OC)nc3)OCOC2=CC1=O` [Compound 86, (6S,7aR)-6-allyl-7a-((S)-1-(6-methoxypyridin-3-yl)propan-2-yl)-7,7a-dihydrobenzo[d][1,3]dioxol-5(6H)-one], the half-maximal inhibitory concentration (IC50) in assay [1] (Homo sapiens, Table 8) was 0.18 µM; in assay [2] (setting [3]), 0.33 µM.
On to `COC[C@H]1C[C@]2([C@@H](C)Cc3cc(O)c(OC)cc3F)OCOC2=CC1=O` [Compound 65, (6R,7aR)-7a-((S)-1-(2-fluoro-5-hydroxy-4-methoxyphenyl)propan-2-yl)-6-(methoxymethyl)-7,7a-dihydrobenzo[d][1,3]dioxol-5(6H)-one], for which the 50% inhibitory concentration (IC50) in assay [1] (Homo sapiens, Table 7) is 0.64 µM; in assay [2] (setting [5]) it was 1.2 µM.
Take `C=CC[C@H]1C[C@]2([C@H](C)Cc3ccc(OCCOC)c(F)c3)OCOC2=CC1=O` [Compound 101, (6S,7aR)-6-allyl-7a-((R)-1-(3-fluoro-4-(2-methoxyethoxy)phenyl)propan-2-yl)-7,7a-dihydrobenzo[d][1,3]dioxol-5(6H)-one]: the IC50 in assay [1] (Homo sapiens, Table 5) was over 20 µM; in assay [2] (setting [8]) it was over 20 µM.
As for `C=CC[C@H]1C[C@]2([C@@H](C)Cc3cc(C(=O)N(C)C)c(OC)cc3F)OCOC2=CC1=O` [Compound 94, 5-((S)-2-((3aR,5S)-5-allyl-6-oxo-3a,4,5,6-tetrahydrobenzo[d][1,3]dioxol-3a-yl)propyl)-4-fluoro-2-methoxy-N,N-dimethylbenzamide], the 50% inhibitory concentration (IC50) in assay [1] (Homo sapiens, Table 3) was over 20 µM; in assay [2] (setting [6]), over 20 µM.
With `C=CC[C@H]1C[C@]2([C@@H](C)Cc3ccc(OC)c(C)c3)OCOC2=CC1=O` [Compound 27, (6S,7aR)-6-allyl-7a-((S)-1-(4-methoxy-3-methylphenyl)propan-2-yl)-7,7a-dihydrobenzo[d][1,3]dioxol-5(6H)-one], the 50% inhibitory concentration (IC50) in assay [1] (Homo sapiens, Table 4) amounted to 0.41 µM; in assay [2] (setting [7]), 0.63 µM.
`COc1cc(F)c(C[C@H](C)[C@]23C[C@H](CC(C)O)C(=O)C=C2OCO3)cc1O` (stereo partly drawn) [Compound 109, (6S,7aR)-7a-((S)-1-(2-fluoro-5-hydroxy-4-methoxyphenyl)propan-2-yl)-6-(2-hydroxypropyl)-7,7a-dihydrobenzo[d][1,3]dioxol-5(6H)-one]: the half-inhibitory concentration (IC50) was found to be 0.65 µM in assay [1] (Homo sapiens, Table 7) and 1.5 µM in assay [2] (setting [5]).
Turning to `C=CC[C@H]1C[C@]2([C@H](C)Cc3cc(C(=O)NC)c(OC)cc3F)OCOC2=CC1=O` [Compound 13, 5-((R)-2-((3aR,5S)-5-allyl-6-oxo-3a,4,5,6-tetrahydrobenzo[d][1,3]dioxol-3a-yl)propyl)-4-fluoro-2-methoxy-N-methylbenzamide], the IC50 is 0.19 µM in assay [1] (Homo sapiens, Table 3) and 0.37 µM in assay [2] (setting [6]).
For `CC[C@H]1C[C@]2([C@@H](C)Cc3cc(F)c(OC)cc3F)OCOC2=CC1=O` [Compound 57], the IC50 in assay [1] (Homo sapiens, Table 7) is 0.14 µM; in assay [2] (setting [5]), 0.2 µM.
With `C=CC[C@H]1C[C@]2(C(C)Cc3ccc(OC)c(N)c3)OCOC2=CC1=O` (stereo partly drawn) [Compound 34, (6S,7aR)-6-allyl-7a-(1-(3-amino-4-methoxyphenyl)propan-2-yl)-7,7a-dihydrobenzo[d][1,3]dioxol-5(6H)-one], the IC50 stood at 0.049 µM in assay [1] (Homo sapiens, Table 4) and 0.18 µM in assay [2] (setting [7]).
Turning to `C=CC[C@H]1C[C@]2([C@@H](C)Cc3ccc(N(C)C(C)=O)cc3)OCOC2=CC1=O` [Compound 103, N-(4-((S)-2-((3aR,5S)-5-allyl-6-oxo-3a,4,5,6-tetrahydrobenzo[d][1,3]dioxol-3a-yl)propyl)phenyl)-N-methylacetamide], the IC50 in assay [1] (Homo sapiens, Table 5) is over 20 µM; in assay [2] (setting [8]) it was over 20 µM.
As for `CCS[C@H]1C[C@]2([C@@H](C)Cc3ccc(OC)cc3F)OCOC2=CC1=O` [Compound 115, (6S,7aR)-6-(ethylthio)-7a-((S)-1-(2-fluoro-4-methoxyphenyl)propan-2-yl)-7,7a-dihydrobenzo[d][1,3]dioxol-5(6H)-one], the concentration for half-maximal inhibition (IC50) is 11.3 µM in assay [1] (Homo sapiens, Table 7) and over 20 µM in assay [2] (setting [5]).
With `C=CCNc1cc(CC(C)[C@]23C[C@H](CC=C)C(=O)C=C2OCO3)ccc1OC` (stereo partly drawn) [Compound 36, (6S,7aR)-6-allyl-7a-(1-(3-(allylamino)-4-methoxyphenyl)propan-2-yl)-7,7a-dihydrobenzo[d][1,3]dioxol-5(6H)-one], the half-inhibitory concentration (IC50) in assay [1] (Homo sapiens, Table 4) worked out at 0.72 µM; in assay [2] (setting [7]), 1.9 µM.
